Measurements as given in patent US6060481A, “Method for improving insulin sensitivity using an adenosine receptor antagonist” (priority 1999, dated 2000).

Assays:
[1] = target: T1, rat A3 receptor (Rattus norvegicus, UniProt P28647); conditions: rat versus human A3; cited from earlier work
T1 sequence (P28647 1-320): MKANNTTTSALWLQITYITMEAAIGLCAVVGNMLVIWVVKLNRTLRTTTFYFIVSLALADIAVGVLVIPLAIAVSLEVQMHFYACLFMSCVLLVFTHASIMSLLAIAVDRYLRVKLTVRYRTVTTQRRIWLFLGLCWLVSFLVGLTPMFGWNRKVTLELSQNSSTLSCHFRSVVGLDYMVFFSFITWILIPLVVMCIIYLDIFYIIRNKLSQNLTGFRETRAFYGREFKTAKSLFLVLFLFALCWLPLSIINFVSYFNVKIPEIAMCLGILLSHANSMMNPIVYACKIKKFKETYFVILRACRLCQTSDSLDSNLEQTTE

[2] = tested on: insulin receptor kinase; test: Insulin receptor kinase assay of partially purified receptors from gastrocnemius of treated rats; type: in vivo, Zucker rats
Method: BWA1433 was administered as previously described, in a suspension of 7 mg/ml methyl cellulose containing 10 mg/ml BWA1433. BWA1433 was supplied as a free acid from Glaxo-Wellcome but was adjusted to pH 8.0 with NaOH prior to use. In this way, treated animals were given 12 mg/kg BWA1433 every 12 hours (±1 hour) for one week.
Insulin receptors were prepared from 100 mg frozen powdered skeletal muscle using lectin affinity chromatography, as taught by Caro, J. Clin. Invest., 79:1330-1337 (1987). Supernatants from detergent (Triton X-100) solubilized muscle were cycled over 0.3 ml bed volume wheat germ agglutinin agarose (WGA) columns, after which the columns were washed thoroughly overnight. The receptors were eluted in one ml of buffer containing 25 mM N-[2-hydroxyethyl]piperazine-N'-[2-ethanesulfonic acid] (HEPES) (pH 7.6), 55 mM NaCl, 11.25 mM KCI, 0.5 mM CaCl2, 0.5 mM MgCl2, 0.5 mM Na3 VO4, 5 mM NaF, 10% glycerol, 0.05% Triton X-100, and 300 mM-acetyl-D-glucosamine. WGA column eluates were aliquoted to avoid multiple freezing/thawing and were stored at -70° C. until use. Columns were thoroughly washed (50-100 bed volumes wash buffer) and reused. Receptors were quantitated by assaying protein and immunoblotting to specifically assess insulin receptor protein.
Insulin receptor kinase activity was determined using a modification of previously published techniques by Debant, et al., Am. […] Papers were blotted, oven-dried, and radioactivity determined by scintillation counting using a Beckman Model LS3801 scintillation counter. Activity was calculated in mUnits receptor kinase/mg of WGA eluate protein. […]
Insulin receptor kinase activity was measured 1) in the basal state in non-insulin-injected animals, 2) in insulin-injected animals without added insulin, and 3) in receptors isolated from insulin injected animals but stimulated in vitro with 1 μM exogenous insulin. […] Intravenous insulin-injection increased the observed activity of the insulin receptor kinase 7- to 12-fold when measured in the absence of insulin added in vitro (FIG. 4A). […]

[3] = tested on: protein tyrosine phosphatase; test: In vitro inclusion of compound in WGA eluates, protein tyrosine phosphatase assay; type: biochemical, Zucker rats; conditions: 10 μM in vitro in WGA eluates from obese controls
Method: Assays were performed at 25° C. using a slight modification of a protocol described by Ahmad and Goldstein, Am. […] Each tube contained 10 μl [^32 P]tyrosine-phosphorylated myelin basic protein (1×10^4 dpm; 2×10^3 dpm/pmol), 10 μl 5X PTP-ase buffer [250 mM HEPES (pH 7.0), 10 mM EDTA, 5 mM DTT], and 1-5 μg muscle fraction protein and water in a total volume of 40 μl. Consumption of substrate (phosphorylated myelin basic protein) was limited to 20%. […] The assay differs from that of Ahmed and Goldstein in that the amount of phosphorylated substrate (myelin basic protein) was lower and its specific activity higher, similar to the skeletal muscle PTPase assay described by Tanowitz, et al., Brain Res., 712:299-306 (1996).
(§1) PTPase was measured in skeletal muscle cytosolic fractions, particulate fractions, and in partially purified insulin receptors. To assay PTPase activity in partially purified insulin receptors the WGA eluates were dialyzed overnight against 0.1% β-mercaptoethanol and 20 mM HEPES, pH 7.2, to eliminate phosphatase inhibitors.

[4] = tested on: protein tyrosine phosphatase; test: Protein tyrosine phosphatase assay of gastrocnemius fractions and insulin receptor preparations of treated rats; type: in vivo, Zucker rats
Method: Approximately 100 mg frozen tissue were homogenized in 5 ml buffer containing 10 mM NaHCO3, (pH 7.4), 250 mM sucrose, 0.1 mg/ml aprotinin, 0.05 mg/ml leupeptin, 1 mM phenylmethysulfonyl fluoride (PMSF), and 5 mM NaN3 (CHB buffer) and then sonicated for 1 min on ice with three 20-sec bursts. The sonicate was centrifuged at 1,200 g for 10 min at 4° C. Three ml of CHB medium was added to the pellet which was then rehomogenized for 1 min and respun. The suspensions of the two pellets were combined, rehomogenized, and respun at 10,000 g for 10 minutes at 4° C. The 10,000 g pellet was discarded and the supernatant was transferred to a cold Ti75 ultracentrifuge tube and spun at 270,000 g for 90 minutes. The supernatant of the high speed centrifugation (cytosol) was used for PTPase assays. The 270,000 g pellet was resuspended in 0.500 ml buffer containing 250 mM sucrose, 20 mM HEPES (pH 7.4), 0.6 M KC1, and 1% Triton X-100. A 27 gauge syringe needle was used to completely solubilize the pellet. The supernatant was spun at 12,000 rpm for 20 min and the resulting supernatant, termed particulate fraction was then dialyzed overnight at 4° C. against 20 mM HEPES (pH 7.2) and 0.1% β-mercaptoethanol. Samples were stored at -70° C. until used for PTPase assays.
Each tube contained 10 μl [^32 P]tyrosine-phosphorylated myelin basic protein (1×10^4 dpm; 2×10^3 dpm/pmol), 10 μl 5X PTP-ase buffer [250 mM HEPES (pH 7.0), 10 mM EDTA, 5 mM DTT], and 1-5 μg muscle fraction protein and water in a total volume of 40 μl. Consumption of substrate (phosphorylated myelin basic protein) was limited to 20%.
One unit of PTPase activity is defined as the amount of enzyme releasing 1 nmol phosphate/min from myelin basic protein.
as §1

[5] = target: T2, human A3 adenosine receptor (Homo sapiens, UniProt P0DMS8); test: Binding constants against cloned and expressed human adenosine receptor subtypes (A3); conditions: read-out: Binding constant (KD) A3
T2 construct: expressed in transfected cells
T2 sequence (P0DMS8 1-318): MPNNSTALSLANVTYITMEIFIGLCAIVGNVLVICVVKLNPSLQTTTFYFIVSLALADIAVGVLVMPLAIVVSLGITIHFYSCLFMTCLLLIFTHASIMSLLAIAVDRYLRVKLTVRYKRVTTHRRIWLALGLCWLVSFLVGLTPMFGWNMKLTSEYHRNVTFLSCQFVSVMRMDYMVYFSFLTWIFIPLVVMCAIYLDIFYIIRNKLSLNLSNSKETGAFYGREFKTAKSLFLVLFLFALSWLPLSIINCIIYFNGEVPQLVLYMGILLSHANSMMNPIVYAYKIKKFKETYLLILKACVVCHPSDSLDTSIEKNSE

[6] = target: T3, human A1 adenosine receptor (Homo sapiens, UniProt P30542); test: Binding constants against cloned and expressed human adenosine receptor subtypes (A1); conditions: read-out: Binding constant (KD) A1
T3 construct: expressed in transfected cells
T3 sequence (P30542 1-326): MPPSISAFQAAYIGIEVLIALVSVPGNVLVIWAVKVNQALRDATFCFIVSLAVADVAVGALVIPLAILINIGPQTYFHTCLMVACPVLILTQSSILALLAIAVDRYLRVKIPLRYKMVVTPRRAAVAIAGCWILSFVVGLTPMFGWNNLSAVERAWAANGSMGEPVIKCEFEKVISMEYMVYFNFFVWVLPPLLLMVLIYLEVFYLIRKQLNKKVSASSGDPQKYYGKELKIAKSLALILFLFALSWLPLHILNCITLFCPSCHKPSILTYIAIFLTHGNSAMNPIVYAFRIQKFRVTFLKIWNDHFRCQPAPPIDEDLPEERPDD

[7] = Zucker rats; cited from earlier work
[8] = target: T4, human A2A adenosine receptor (Homo sapiens, UniProt P29274); test: Binding constants against cloned and expressed human adenosine receptor subtypes (A2A); conditions: read-out: Binding constant (KD) A2A
T4 construct: expressed in transfected cells
T4 sequence (P29274 whole entry): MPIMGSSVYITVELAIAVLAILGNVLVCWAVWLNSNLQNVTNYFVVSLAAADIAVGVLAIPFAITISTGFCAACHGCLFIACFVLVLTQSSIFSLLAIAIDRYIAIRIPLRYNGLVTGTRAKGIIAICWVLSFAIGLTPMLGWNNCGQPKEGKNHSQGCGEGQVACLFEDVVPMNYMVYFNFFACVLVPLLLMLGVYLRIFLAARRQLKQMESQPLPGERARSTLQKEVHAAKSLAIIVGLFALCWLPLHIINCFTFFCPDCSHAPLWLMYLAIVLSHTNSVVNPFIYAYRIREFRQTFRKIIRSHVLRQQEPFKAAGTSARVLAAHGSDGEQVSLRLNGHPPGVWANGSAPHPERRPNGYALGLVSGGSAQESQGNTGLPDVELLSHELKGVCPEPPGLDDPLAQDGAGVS

SMILES: CCCn1c(=O)c2[nH]c(-c3ccc(C=CC(=O)O)cc3)nc2n(CCC)c1=O [BWA1433, 1,3-dipropyl-8-(p-acrylic)phenylxanthine]
- KD of rat A3 receptor relative to human A3 receptor [1]: much higher
- Insulin receptor kinase activity ([2]; lean rats, insulin in vivo plus 1 μM insulin in vitro): no significant influence
- Insulin receptor kinase activity ([2]; obese animals, insulin injected in vivo, no insulin added in vitro): small but significant increase
- Insulin receptor kinase activity ([2]; obese rats, insulin in vivo plus 1 μM insulin in vitro): increased
- Effect on protein tyrosine phosphatase activity [3]: no effect
- Phosphatase activity in cytosolic fractions of gastrocnemius ([4]; between groups (lean, obese, ± treatment)): No differences
- PTPase activity in particulate fraction of gastrocnemius ([4]; obese Zucker rats): reduction
- Reduction of phosphatase activity in partially-purified insulin receptor preparations compared to untreated controls ([4]; obese rats): 27%
- Kd [5]: 30 nM
- Kd [6]: 140 nM
- Glucose tolerance [7]: improves glucose tolerance
- Kd [8]: 190 nM
